Source: ChEMBL document CHEMBL1201862, “PubChem BioAssay data set” (2004)
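Assay format: 96-well plates, 48-hour exposure. At the GI50, growth is halved.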 The source made the active and inactive calls. Rule as the data show it: active = GI50 up to about 1.1 µM and inactive = higher.

Experiments:
Test in all cases: NCI-60 cell line screen, 48 h
IGROV-1 = tested on: IGROV-1
SW-620 = tested on: SW-620
SF-539 = tested on: SF-539
NCI/ADR-RES = tested on: NCI/ADR-RES
SK-OV-3 = tested on: SK-OV-3
SN12C = tested on: SN12C
A498 = tested on: A498
HL-60 = tested on: HL-60
OVCAR-3 = tested on: OVCAR-3
K562 = tested on: K562
OVCAR-8 = tested on: OVCAR-8
ACHN = tested on: ACHN
SNB-75 = tested on: SNB-75
KM12 = tested on: KM12
HCC 2998 = tested on: HCC 2998
Hs-578T = tested on: Hs-578T
SK-MEL-28 = tested on: SK-MEL-28
RXF 393 = tested on: RXF 393
OVCAR-5 = tested on: OVCAR-5
CAKI-1 = tested on: CAKI-1

| SMILES | GI50 (IGROV-1) | GI50 (SW-620) | GI50 (SF-539) | GI50 (NCI/ADR-RES) | GI50 (SK-OV-3) | GI50 (SN12C) | GI50 (A498) | GI50 (HL-60) | GI50 (OVCAR-3) | GI50 (K562) | GI50 (OVCAR-8) | GI50 (ACHN) | GI50 (SNB-75) | GI50 (KM12) | GI50 (HCC 2998) | GI50 (Hs-578T) | GI50 (SK-MEL-28) | GI50 (RXF 393) | GI50 (OVCAR-5) | GI50 (CAKI-1) |
| --- | --- | --- | --- | --- | --- | --- | --- | --- | --- | --- | --- | --- | --- | --- | --- | --- | --- | --- | --- | --- |
| COC(C)(C)[C@@H](O)[C@H]1C[C@H](C)[C@@]2(CC[C@]3(C)[C@@H]2CC[C@@H]2[C@@]4(C)CC[C@@H](OC(C)=O)C(C)(C)[C@@H]4C[C@@H](OC4OC(COC(C)=O)C(O)C(O)C4O)[C@]23C)O1 (some centres not stated) | 4.39 µM (inactive) | 6.81 µM (inactive) | 10.1 µM (inactive) | 7.43 µM (inactive) | 4.7 µM (inactive) | 6.43 µM (inactive) | 6.41 µM (inactive) | 2.1 µM (inactive) | 4.26 µM (inactive) | 3.79 µM (inactive) | 5.33 µM (inactive) | 5.86 µM (inactive) | 4.46 µM (inactive) | 1.79 µM (inactive) | 0.662 µM (active) | 6.76 µM (inactive) | 7.57 µM (inactive) | 4.1 µM (inactive) | 2.54 µM (inactive) | 8.43 µM (inactive) |
| [N-]=[N+]=Nc1c([N+](=O)[O-])c(Cl)nc2ccccc12 | 2.09 µM (inactive) | 0.48 µM (active) | 3.92 µM (inactive) | 2.56 µM (inactive) | 14.5 µM (inactive) | 2.23 µM (inactive) | 13.7 µM (inactive) | 0.119 µM (active) | 1.41 µM (inactive) | 0.463 µM (active) | 1.87 µM (inactive) | 1.76 µM (inactive) | 8.93 µM (inactive) | 7.16 µM (inactive) | 1.98 µM (inactive) | 3.12 µM (inactive) | 2.48 µM (inactive) | 1.86 µM (inactive) | 2.44 µM (inactive) | 0.971 µM (active) |
| CC(C)(Cl)C(Cl)CC/C(CBr)=C(\Cl)CBr (configuration not stated) | 1.66 µM (inactive) | 1.6 µM (inactive) | 2.4 µM (inactive) | 2.77 µM (inactive) | 4.31 µM (inactive) | 2.45 µM (inactive) | 19.2 µM (inactive) | 0.32 µM (active) | 2.64 µM (inactive) | 0.586 µM (active) | 1.95 µM (inactive) | 3.66 µM (inactive) | 2.23 µM (inactive) | 2.08 µM (inactive) | 9.68 µM (inactive) | 1.85 µM (inactive) | 2.03 µM (inactive) | 1.53 µM (inactive) | 2.29 µM (inactive) | 2.62 µM (inactive) |
| O=C(C=P(c1ccccc1)(c1ccccc1)c1ccccc1)c1cccc(-c2cccc([N+](=O)[O-])c2)c1 | 2.94 µM (inactive) | 3.33 µM (inactive) | 4.56 µM (inactive) | 3.42 µM (inactive) | 2.86 µM (inactive) | 2.97 µM (inactive) | 1.83 µM (inactive) | 1.76 µM (inactive) | 3.03 µM (inactive) | 2.99 µM (inactive) | 3.57 µM (inactive) | 2.89 µM (inactive) | 1.51 µM (inactive) | 3.67 µM (inactive) | 3.27 µM (inactive) | 3.44 µM (inactive) | 3.1 µM (inactive) | 5.66 µM (inactive) | 3.1 µM (inactive) | 1.86 µM (inactive) |
| COC(=O)c1cc2c(c(C(=O)OC)c1)CCC2 | > 100 µM (inactive) | > 100 µM (inactive) | > 100 µM (inactive) | 59.8 µM (inactive) | > 100 µM (inactive) |  | 63.7 µM (inactive) | 70.6 µM (inactive) | 49.4 µM (inactive) | 59 µM (inactive) | > 100 µM (inactive) | > 100 µM (inactive) | 34.8 µM (inactive) |  | > 100 µM (inactive) | > 100 µM (inactive) | > 100 µM (inactive) | 82.6 µM (inactive) | > 100 µM (inactive) | 20.7 µM (inactive) |
| CC(C)(C)c1ccc(S(=O)(=O)N2C(c3cccc(C4CC[C@@H](C(=O)O)N4S(=O)(=O)c4ccc(C(C)(C)C)cc4)c3)CC[C@H]2C(=O)O)cc1 (some centres not stated) | 33.5 µM (inactive) | 69.3 µM (inactive) | 87.3 µM (inactive) | > 100 µM (inactive) | > 100 µM (inactive) | 47.3 µM (inactive) | > 100 µM (inactive) | 43.5 µM (inactive) | 28 µM (inactive) | 37.5 µM (inactive) | 67.5 µM (inactive) | 57.4 µM (inactive) | > 100 µM (inactive) | 53.8 µM (inactive) | 47.4 µM (inactive) | 47 µM (inactive) | > 100 µM (inactive) | 30.1 µM (inactive) | > 100 µM (inactive) | 42.5 µM (inactive) |
| CCOc1ccc(NCC2CC/C(=C\c3ccc(O)cc3)C2=O)cc1 (configuration not stated) | 18.9 µM (inactive) | 3.03 µM (inactive) | 19.1 µM (inactive) | 18 µM (inactive) | > 44.7 µM (inactive) | 18.5 µM (inactive) | 18.2 µM (inactive) | 2.22 µM (inactive) | 12.2 µM (inactive) | 3.89 µM (inactive) | 17.9 µM (inactive) | 17 µM (inactive) | 14.5 µM (inactive) | 12.2 µM (inactive) | 18.1 µM (inactive) | 28.8 µM (inactive) | 15.5 µM (inactive) | 18.7 µM (inactive) | 15.6 µM (inactive) | 17.1 µM (inactive) |
| CC(C)Cc1ccc(C(C)/C=C2\CCC(CN3CCOCC3)C2=O)cc1 (configuration not stated) | 7.71 µM (inactive) | 3 µM (inactive) | 12.5 µM (inactive) | 3.93 µM (inactive) | 18.8 µM (inactive) | 9.27 µM (inactive) | 12.5 µM (inactive) | 2.69 µM (inactive) | 4.1 µM (inactive) | 1.92 µM (inactive) | 3.61 µM (inactive) | 16 µM (inactive) | 8.34 µM (inactive) | 5.47 µM (inactive) | 11.6 µM (inactive) | 3.6 µM (inactive) | 9.12 µM (inactive) | 8.43 µM (inactive) | 20.7 µM (inactive) | 18 µM (inactive) |
| C(=C\c1nccs1)/c1cccc(/C=C/c2nccs2)n1 | 26.5 µM (inactive) | > 50 µM (inactive) | > 50 µM (inactive) | > 50 µM (inactive) | > 50 µM (inactive) | > 50 µM (inactive) | > 50 µM (inactive) | > 50 µM (inactive) | > 50 µM (inactive) | > 50 µM (inactive) | 47.9 µM (inactive) | > 50 µM (inactive) | 22 µM (inactive) | > 50 µM (inactive) | 27.7 µM (inactive) | > 50 µM (inactive) | > 50 µM (inactive) | > 50 µM (inactive) | > 50 µM (inactive) | > 50 µM (inactive) |
| COc1cc(O)c2c(=O)c(OC)c(-c3ccc(OC)c(O)c3)oc2c1 [AYANIN] | 25.4 µM (inactive) | > 100 µM (inactive) | 18.4 µM (inactive) | > 100 µM (inactive) | 35.7 µM (inactive) | 61.9 µM (inactive) | 3.44 µM (inactive) | > 100 µM (inactive) | 63.8 µM (inactive) | 60.5 µM (inactive) | 66.5 µM (inactive) | 33.1 µM (inactive) | 6.14 µM (inactive) | 35.7 µM (inactive) | 28.2 µM (inactive) | 7.85 µM (inactive) | > 100 µM (inactive) | 57.3 µM (inactive) | 37.4 µM (inactive) | 6.71 µM (inactive) |
| Nc1c(C(=O)c2ccccc2)[nH]c(NCc2ccccc2)c1C(=S)Nc1ccccc1 | > 100 µM (inactive) | > 100 µM (inactive) | > 100 µM (inactive) | > 100 µM (inactive) | > 100 µM (inactive) | > 100 µM (inactive) | > 100 µM (inactive) | > 100 µM (inactive) | > 100 µM (inactive) | > 100 µM (inactive) | > 100 µM (inactive) | > 100 µM (inactive) | > 100 µM (inactive) | > 100 µM (inactive) | > 100 µM (inactive) | > 100 µM (inactive) | > 100 µM (inactive) | > 100 µM (inactive) | > 100 µM (inactive) | > 100 µM (inactive) |
| CC1=C(N2CC2)C(=O)C(CO)=C(N2CC2)C1=O | 0.0112 µM (active) | 0.0123 µM (active) | < 0.0123 µM (active) | 0.0106 µM (active) | 0.0516 µM (active) | < 0.0102 µM (active) | 0.0575 µM (active) | < 0.01 µM (active) | 0.0203 µM (active) | 0.0186 µM (active) |  | < 0.01 µM (active) | 0.031 µM (active) | 0.0227 µM (active) | 0.0378 µM (active) | 0.234 µM (active) | 0.0711 µM (active) | 0.0231 µM (active) | 0.067 µM (active) | < 0.01 µM (active) |
| C(CCc1nnc2c(n1)CCCC2)Cc1nnc2c(n1)CCCC2 | > 100 µM (inactive) | > 100 µM (inactive) | > 100 µM (inactive) | > 100 µM (inactive) | > 100 µM (inactive) | > 100 µM (inactive) | > 100 µM (inactive) | > 100 µM (inactive) | > 100 µM (inactive) | > 100 µM (inactive) | > 100 µM (inactive) | > 100 µM (inactive) | > 100 µM (inactive) | > 100 µM (inactive) | > 100 µM (inactive) | > 100 µM (inactive) | > 100 µM (inactive) | > 100 µM (inactive) | > 100 µM (inactive) | > 100 µM (inactive) |
